The values below come from US20240392302A1, “METHOD FOR DETECTING AND QUANTIFYING RNA” (FLUORESCENCE DIAGNOSIS (SHANGHAI) BIOTECH COMPANY LTD., priority 2021, published 2024).

The test system of series [1] is RNA aptamers. To be noted: cited from earlier work.
A short description of series [2]: N16-1 as a label for RNA extraction and purification. To be noted: total RNA of COS-7 cells; eluent vs crushed supernatant, incubated with I-5-14. On the procedure: In order to detect the application of N16-1 to RNA extraction and purification, the pCDNA3.1/hygro(+)-ACTB-N16-1 recombinant plasmids in Example 13 were transfected into COS-7 cells, cells were collected 24 h later, and total RNA of cells was extracted by using Eastep Super total RNA extraction kit (Promega). The extracted total RNA dissolved in a buffer solution having a pH value of 7.4 and containing 40 mM of HEPES, 125 mM of KCl and 5 mM of MgCl2, and was incubated at 70° C. for 10 min, and then was placed at room temperature for more than 30 min.
500 μL of Activated Thiol Sepharose 4B (GE Healthcare) was taken and was washed twice with 500 μL of PBS, and PBS containing 10 mM of TCEP (Sigma) was added for incubation at room temperature for 1 h. 500 μL of PBS was used for cleaning twice, I-5-14 fluorophore molecules (Mal-I-5-14) containing maleic amide were added for reaction at room temperature for 30 min, and then 500 μL of PBS was used for cleaning for three times. […]
With crushed supernatant of blank cells as control, the fluorescence of the crushed supernatant of cells incubated with fluorophore I-5-14, and that of the eluent after final high temperature elution incubated with fluorophore I-5-14 were respectively detected.

Regarding `CN(C)c1ccc(C(=C2C=CC(=[N+](C)C)C=C2)c2ccccc2)cc1` [MG, malachite green], in series [1], the fluorescence enhancement multiple was 2360.

B1: ACTB-N16-1: ACTB-N16-1 chimeric RNA, SEQ ID NO: 13 (nucleic acid)
chain: ANGGANGANGANANCGCCGCGCNCGNCGNCGACAACGGCNCCGGCANGNGCAAGGCCGGCNNCGCGGGCGACGANGCCCCCCGGGCCGNCNNCCCCNCCANCGNGGGGCGCCCCAGGCACCAGGGCGNGANGGNGGGCANGGGNCAGAAGGANNCCNANGNGGGCGACGAGGCCCAGAGCAAGAGAGGCANCCNCACCCNGAAGNACCCCANCGAGCACGGCANCGNCACCAACNGGGACGACANGGAGAAAANCNGGCACCACACCNNCNACAANGAGCNGCGNGNGGCNCCCGAGGAGCACCCCGNGCNGCNGACCGAGGCCCCCCNGAACCCCAAGGCCAACCGCGAGAAGANGACCCAGANCANGNNNGAGACCNNCAACACCCCAGCCANGNACGNNGCNANCCAGGCNGNGCNANCCCNGNACGCCNCNGGCCGNACCACNGGCANCGNGANGGACNCCGGNGACGGGGNCACCCACACNGNGCCCANCNACGAGGGGNANGCCCNCCCCCANGCCANCCNGCGNCNGGACCNGGCNGGCCGGGACCNGACNGACNACCNCANGAAGANCCNCACCGAGCGCGGCNACAGCNNCACCACCACGGCCGAGCGGGAAANCGNGCGNGACANNAAGGAGAAGCNGNGCNACGNCGCCCNGGACNNCGAGCAAGAGANGGCCACGGCNGCNNCCAGCNCCNCCCNGGAGAAGAGCNACGAGCNGCCNGACGGCCAGGNCANCACCANNGGCAANGAGCGGNNCCGCNGCCCNGAGGCACNCNNCCAGCCNNCCNNCCNGGGCANGGAGNCCNGNGGCANCCACGAAACNACCNNCAACNCCANCANGAAGNGNGACGNGGACANCCGCAAAGACCNGNACGCCAACACAGNGCNGNCNGGCGGCACCACCANGNACCCNGGCANNGCCGACAGGANGCAGAAGGAGANCACNGCCCNGGCACCCAGCACAANGAAGANCAAGANCANNGCNCCNCCNGAGCGCAAGNACNCCGNGNGGANCGGCGGCNCCANCCNGGCCNCGCNGNCCACCNNCCAGCAGANGNGGANCAGCAAGCAGGAGNANGACGAGNCCGGCCCCNCCANCGNCCACCGCAAANGCNNCNAGCNCGAGGCCGCGGGCNCCAGGNGCNGCNNCGGCAGGNAACGGACNNAGANCCACNGNACGCCCGCGGC
With B1, in series [2], the “enrichment of RNA on Mal-I-5-14 microbeads” value is listed as “well enriched”.
